Measurements as given in ChEMBL document CHEMBL2363022, “Malaria Box Schistosomiasis Screening Data” (2013).

Columns and labels:
Type in all cases: functional
Set-up in all cases: scale not given here
Schistosoma mansoni [1] = system: Schistosoma mansoni
Schistosoma mansoni [2] = system: Schistosoma mansoni; remark: listed apart in the source
Schistosoma mansoni [3] = system: Schistosoma mansoni; remark: listed apart in the source

Row | Structure (SMILES) | Toxicity (Schistosoma mansoni [1]) | Toxicity (Schistosoma mansoni [2]) | Toxicity (Schistosoma mansoni [3])
1 | CCOc1ccc2nc(C)cc(Nc3ccc(N(C)C)cc3)c2c1.Cl | 4 | 4 | 2
2 | Cc1cc(NCCN2CCCCC2)c2ccc3ccccc3c2n1 | 4 | 4 | 4
3 | COc1ccc(C2c3ccc4ccccc4c3Oc3ncn(CCCN(C)C)c(=N)c32)cc1 (configuration not stated) | 4 | 4 | 4
4 | c1ccc2c(NCCc3c[nH]c4ccccc34)c3ccccc3nc2c1 | 4 | 4 | 3
5 | COc1ccccc1NC1=C(N2CCCCC2)C(=O)c2ccccc2C1=O | 4 | 4 | 4
6 | O=C(Nc1ccc(Cl)cc1)N1CCN(c2ccc3nncn3n2)CC1 | 0 | 0 | 0
7 | COc1ccc(C(=O)Nc2nonc2-c2ccc(OC)c(OC)c2)cc1Cl | 0 | 0 | 0
8 | CCOc1cc(CNC(C)C(O)c2ccccc2)cc(Cl)c1OCC (configuration not stated) | 0 | 1 | 0
9 | Cc1cc(NC(=O)c2cccc(C(F)(F)F)c2)n(-c2nc(-c3ccc4c(c3)OCO4)cs2)n1 | 0 | 3 | 0
10 | CCN(CC)CCNc1ccnc2cc(Cl)ccc12 | 0 | 0 | 0
11 | O=C(NC1CCN(Cc2ccccc2)CC1)c1cc(-c2cccnc2)nc2ccc(Cl)cc12 | 0 | 0 | 0
12 | O=C(Nc1ccccc1O)c1ccc(-c2ccc(Cl)cc2Cl)o1 | 0 | 0 | 0
13 | Oc1ccc(-c2nc(-c3ccc4oc5ccc(-c6[nH]c(-c7ccc(O)cc7)nc6-c6ccccc6)cc5c4c3)c(-c3ccccc3)[nH]2)cc1 | 0 | 0 | 0
14 | CCCCOC(=O)c1ccc(Nc2cc(C)nc3ccc(OC)cc23)cc1 | 0 | 4 | 2
15 | CCOc1ccc(-n2cc(-c3ccccc3)c3c(SCc4cc(C)ccc4C)ncnc32)cc1 | 0 | 0 | 0
16 | O=C(Nc1ccc(Br)cc1)Nc1cccc(Cl)c1 | 0 | 3 | 0
17 | COc1ccc(C(O)(CCC(C)C)C(CN2CCOCC2)c2ccc(Cl)cc2)cc1.Cl (configuration not stated) | 0 | 0 | 0
18 | FC(F)(F)c1cccc(CNC2CCN(CCc3ccccc3)CC2)c1 | 0 | 0 | 0
19 | COc1cccc(C(=O)Nc2ccc(-c3nc4ccccc4[nH]3)cc2)c1 | 0 | 0 | 0
20 | O=c1c2c([nH]c3ccccc13)CCCC2 | 0 | 0 | 0
21 | CCCCCCc1cc2cc(-c3nc4ccccc4[nH]3)c(=Nc3ccccc3C)oc2cc1O | 3 | 3 | 0
22 | COc1cccc(C(=O)NC(c2ccc(C)cc2)c2cc(Cl)c3cccnc3c2O)c1 (configuration not stated) | 4 | 4 | 1
23 | COc1ccc(-c2nc(N3CCN(C(=O)C4CCCCC4)CC3)c3c4c(sc3n2)CCCC4)cc1 | 0 | 0 | 0
24 | CCOc1ccccc1CN1CCc2nc3cc(C(C)(C)C)nn3c(O)c2C1 | 2 | 2 | 0
25 | CCOc1cc2c(cc1OCC)C(c1cc(C)c(O)c(C)c1)NCC2.Cl (configuration not stated) | 0 | 0 | 2

Row | Structure (SMILES) | Toxicity (Schistosoma mansoni [1]) | Toxicity (Schistosoma mansoni [2]) | Toxicity (Schistosoma mansoni [3])
26 | COc1cccc(C=Cc2nc(=O)c3ccccc3o2)c1OC | 0 | 0 | 0
27 | Cc1ccc(-c2nc3ccccc3o2)cc1NCc1cc(Cc2ccccc2)ccc1O | 0 | 0 | 0
28 | Cc1sc2ncnc(Sc3nc4ccccc4[nH]3)c2c1C | 1 | 0 | 1
29 | Nc1nc(Nc2cccc(F)c2)nc2ccccc12 | 0 | 0 | 0
30 | Cl.Oc1ccccc1CNCC12CC3CC(CC(C3)C1)C2 | 0 | 0 | 0
31 | O=C(Nc1cccc(-c2nc3ccccc3[nH]2)c1)c1cccc(NC(=O)c2ccco2)c1 | 0 | 1 | 0
32 | Cc1cc(N2CCN(C3CCCC3)CC2)n2c(nc3ccccc32)c1C#N | 0 | 0 | 0
33 | CCOc1ccc(CCNC(=O)c2cccs2)cc1OCC | 0 | 0 | 0
34 | CN(C)c1ccc(C=Cc2nc(=O)c3ccccc3o2)cc1 | 0 | 0 | 0
35 | CC(C)CCNCC(O)Cn1c2ccccc2c2ccccc21.Cl (configuration not stated) | 4 | 4 | 2
36 | COc1cc2c3cc1Oc1c(OC)c(OC)cc4c1C(Cc1ccc(O)c(c1)Oc1ccc(cc1)CC3N(C)CC2)N(C)CC4.Cl (configuration not stated) | 3 | 4 | 2
37 | Cc1ccc2c(C)nc(Nc3nc(C)cc(-c4ccccc4)n3)nc2c1 | 0 | 0 | 0
38 | COc1ccc(N2CCN(C(CNC(=O)CC(C)(C)C)c3ccc4c(c3)OCO4)CC2)cc1 (configuration not stated) | 0 | 0 | 0
39 | COc1ccc(OC)c(C2C3=C(CC(C)(C)CC3=O)N(c3ccc(Cl)c(Cl)c3)C3=C2C(=O)CC(C)(C)C3)c1 | 0 | 1 | 1
40 | CCCCOc1ccc(C(=O)Nc2cc(C)on2)cc1 | 0 | 0 | 0
41 | CC(C)(C)c1ccc(O)c(CNC2CCCCC2)c1 | 0 | 0 | 0
42 | CCN(CC)CCCNc1ccnc2cc3ccccc3cc12 | 2 | 2 | 2
43 | CCOC(=O)c1c(NC(=O)c2ccccc2)sc2c(O)c(CN(CC)CC)ccc12 | 0 | 0 | 0
44 | COc1ccc(C2=C(c3ccc(OC)cc3)C3(c4ccccc4)C(=O)C2(c2ccccc2)C2C(=O)N(c4ccc(C)cc4)C(=O)C23)cc1 (configuration not stated) | 0 | 0 | 0
45 | Nc1ccn([C@@H]2O[C@H](CO)[C@@H](O)[C@H]2O)c(=O)n1 [CYTIDINE] | 0 | 0 | 0
46 | Cc1ccc(NC(=O)Nc2cccc(Cl)c2)cc1F | 0 | 0 | 1
47 | O=C(NC1CCCC1)c1ccc(N2CCC(NCc3cccc(C(F)(F)F)c3)CC2)cc1 | 0 | 1 | 0
48 | COc1ccc(CN2CCCC(C(=O)c3ccc(C(F)(F)F)cc3)C2)c(O)c1 (configuration not stated) | 0 | 0 | 0
49 | COc1ccccc1N1C(=N)SC(=Cc2ccc(OCc3ccccc3F)cc2)C1=O | 0 | 0 | 0
